Like-named read-outs stand apart in the source and are kept apart here.
How the values were obtained:
[1] = molecular target: T1, His tagged PTPN2 (TC45) protein (Homo sapiens, UniProt P17706); test: Mobility shift assay (MSA) for potency of PTPN2 inhibitors; assay type: biochemical
T1 construct: made in house
T1 sequence (P17706 with tags, fused parts or gaps isoform P17706-2): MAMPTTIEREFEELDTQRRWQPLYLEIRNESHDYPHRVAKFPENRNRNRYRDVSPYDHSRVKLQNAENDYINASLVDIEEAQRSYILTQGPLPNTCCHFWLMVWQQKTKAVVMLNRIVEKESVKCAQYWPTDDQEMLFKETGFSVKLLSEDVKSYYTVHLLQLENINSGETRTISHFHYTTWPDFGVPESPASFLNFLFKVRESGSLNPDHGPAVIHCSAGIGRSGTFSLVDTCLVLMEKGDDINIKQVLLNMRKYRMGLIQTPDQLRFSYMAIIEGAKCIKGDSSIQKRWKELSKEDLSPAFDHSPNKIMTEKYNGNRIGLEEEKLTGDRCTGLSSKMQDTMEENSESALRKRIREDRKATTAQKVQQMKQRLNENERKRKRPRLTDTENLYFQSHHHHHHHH
Procedure, shortened: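 IC50 values were derived from % inhibition of substrate conversion, measured by microfluidic mobility shift (ex 488/em 530) after quenching. The fluorescent phosphotyrosine insulin-receptor peptide ([…]) reacted for 10 min at room temperature with 0.5 nM His-tagged TC45 PTPN2 that had been preincubated 10 min with compound (12 points, 1:3). Buffer was HEPES pH 7.5 with EGTA, EDTA, Tween 20 and DTT.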

[2] = test system: Pan T cells isolated from C57BL6 splenocytes; test: T cell function assay (IFNγ and TNFα in supernatants, MSD V-plex); assay type: cell-based, mouse; conditions: 30 μM compound, 3 days, supernatant
Protocol: Pan T cells were isolated from C57BL6 splenocytes using a MACS Pan T cell isolation kit II (Miltenyi Biotec, Auburn, Calif.) according to the manufacturer's instructions. Isolated T cells (200,000 cells/well in a 96 well flat-bottom plate) were cultured in RPMI 1640 supplemented with 10% FBS, […] 2-mercatoethanol, 100 U/mL penicillin, and 100 μg/mL streptomycin, and incubated with the indicated concentration of compound or DMSO in duplicates. After 1 hour, mouse T cell activator CD3/CD28 Dynabeads (ThermoFisher Scientific, Waltham, Mass.) were added at a 1:5 beads to cells ratio to stimulate the T cells for 2 or 3 days as outlined below. T cells with or without compound were incubated in the absence of T cell activator beads (media only) as control.
After 3 days of stimulation, supernatants were collected and IFNγ and TNFα in supernatants were assessed using an MSD V-plex assay (Meso Scale Discovery, Rockville, Md.).

[3] = test system: MC-38 murine colon adenocarcinoma; test: In vivo efficacy in MC38 tumor model; conditions: for mice that achieved complete cures / tolerability / Tumor Growth Inhibition (Max) compared to vehicle [%]: 300 mg/kg/dose oral BID for 21 days; for Tumor Growth Inhibition (Max) compared to vehicle [%]: C57Bl/6 mice, TGIMax over the entirety of the study; for tumor response observed: within 7-10 days of treatment
Protocol: All experiments were conducted in compliance with AbbVie's Institutional Animal Care and Use Committee and the National Institutes of Health Guide for Care and Use of Laboratory Animals guidelines in a facility accredited by the Association for the Assessment and Accreditation of Laboratory Animal Care. C57Bl/6 female mice were obtained from Charles River (Wilmington, Mass.). The mice were group-housed 10 per cage. Food and water were available ad libitum. Animals were acclimated to the animal facilities for a period of at least one week prior to commencement of experiments. Animals were tested in the light phase of a 12-hour light:12-hour dark schedule (lights on 0600 hours).
Cells were grown to passage 3 in vitro. A total of 1×10^5 viable MC-38 cells were inoculated subcutaneously into the right flank of female C57Bl/6 mice (7-12 weeks old) on Day 0. The injection volume was 0.1 mL and was composed of a 1:1 mixture of S-MEM and Matrigel® (Corning, N.Y., USA). […] The mean tumor volume (TV) at size match was approximately 116±8 mm^3. Following size match, treatments were initiated on the same day. […] Compound 124 was formulated in 5% DMSO, 5% Tween 80 (Polysorbate 80), 20% PEG-400 and 70% D5W (5% dextrose in water) and was dosed at 10 mL/kg. […] Tumor volume was calculated three times weekly. Measurements of the length (L) and width (W) of the tumor were taken via electronic caliper and the volume was calculated according to the following equation: V=L×W^2/2 using Study Director Version 3.1.399.22 (Studylog Systems, Inc, CA, USA). Mice were euthanized when tumor volume was […] or skin ulcerations occurred. […] Reported TGIMax is the largest TGI value for any timepoint that tumors volumes were collected for that treatment group.

[4] = anti-CD3/anti-CD28 Dynabeads (1:5 beads:cells)

| SMILES | IC50 ([1]; Table 4, read-out: PTPN2 MSA IC50) [nM] | IC50 ([1]; read-out: PTPN2 IC50) [nM] | IC50 ([1]; read-out: PTPN2 MSA IC50) [nM] | IFNγ [2, 4] [ng/mL] | TNFα [2, 4] [ng/mL] | IFNγ ([2]; no TCR stimulation) [ng/mL] | TNFα ([2]; no TCR stimulation) [ng/mL] | mice that achieved complete cures [3] [%] | tolerability [3] | Tumor Growth Inhibition (Max) compared to vehicle [%] [3] [%] | tumor response observed [3] |
| --- | --- | --- | --- | --- | --- | --- | --- | --- | --- | --- | --- |
| COc1ccc2cc(O)c(N3CC(=O)NS3(=O)=O)c(F)c2c1 [Compound 124, 5-(1-fluoro-3-hydroxy-7-methoxynaphthalen-2-yl)-1λ^6,2,5-thiadiazolidine-1,1,3-trione] | 1 to 10 | 4.4 | 1 to 10 | 435 | 195 | 1.2 | 1.4 | 50 | well tolerated, without obvious adverse health events | 75 | apparent tumor stasis and shrinkage |
| CC(C)(O)CCOc1ccc2cc(O)c(N3CC(=O)NS3(=O)=O)c(F)c2c1 [Compound 182, 5-[1-fluoro-3-hydroxy-7-(3-hydroxy-3-methylbutoxy)naphthalen-2-yl]-1λ^6,2,5-thiadiazolidine-1,1,3-trione] |  |  | < 1 | 189 | 135 |  |  | 50 | well tolerated, without obvious adverse health events | 94 | apparent tumor stasis and shrinkage |
